Laboratory results from PubChem BioAssay (NCI).
“And” between values parts separate entries of the source, which are not always exact repeats. Equal values may be shown once.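 48-hour exposure; five concentrations; linearly interpolated endpoints. GI50 is the concentration that inhibits growth by half. TGI denotes the concentration required for complete inhibition of growth.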

Columns and labels:
Assay in all cases: DTP human tumour cell line panel, 48 h
[1] = test system: HOP-92 NSCLC
[2] = test system: HT29 colon
[3] = test system: LOX IMVI melanoma
[4] = test system: MOLT-4 leukemia
[5] = test system: OVCAR-5 ovarian
[6] = test system: SF-268 CNS
[7] = test system: SF-539 CNS
[8] = test system: SW-620 colon
[9] = test system: TK-10 renal
[10] = test system: UACC-62 melanoma

Compound	TGI [1]	TGI [2] [µM]	TGI [3]	TGI [4]	TGI [5]	TGI [6]	TGI [7]	TGI [8] [µM]	TGI [9]	TGI [10]	GI50 [1]	GI50 [2]	GI50 [3]	GI50 [4]	GI50 [5]	GI50 [6]	GI50 [7]	GI50 [8]	GI50 [9]	GI50 [10]
O=S1(=O)C[C@@H](O)[C@H](O)CS1	> 100 µM	> 100	> 100 µM	> 100 µM	> 100 µM	> 100 µM	> 100 µM	> 100	> 100 µM	> 100 µM										
CNC(=O)c1cccc(-c2ccc3c(N4CCOC[C@@H]4C)nc(N4CCOC[C@@H]4C)nc3n2)c1	0.238 µM and 0.0728 µM	> 100	5.24 µM and > 4.47 µM and > 43.9 µM	28.9 µM and > 10 µM and > 44.4 µM	73.7 µM and > 4.52 µM	10.5 µM and > 6.59 µM and > 100 µM	1.49 µM and 1.26 µM and 0.677 µM	> 100	2.25 µM and 1.63 µM and 1.48 µM	0.339 µM and 0.438 µM and 0.452 µM	0.0187 µM and < 0.0133 µM	0.144 µM and 0.355 µM and 0.323 µM	0.113 µM and 0.217 µM and 0.228 µM	0.101 µM and 0.146 µM and 0.214 µM	0.0765 µM and 0.122 µM and 0.0739 µM	0.0653 µM and 0.209 µM and 0.212 µM	0.15 µM and 0.166 µM and 0.125 µM	0.26 µM and 0.356 µM and 0.293 µM	0.0616 µM and 0.146 µM and 0.113 µM	0.0393 µM and 0.082 µM and 0.0802 µM
COc1cc2c(/C=C3/C(=O)Nc4ccccc43)c(Cl)n(Cc3ccccc3[N+](=O)[O-])c2cc1C	26.8 µM	24.4	24 µM	70.3 µM	35.4 µM	> 100 µM	40.4 µM	34.5	34.1 µM	27 µM	7.25 µM	1.93 µM	9.17 µM	5.51 µM	15.6 µM	24 µM	14.3 µM	7.91 µM	12.4 µM	6.69 µM
CN(C)c1ccc2c3c(c(=O)oc2c1)CCC3	> 100 µM	> 100	> 100 µM	> 100 µM	> 100 µM	> 100 µM	> 100 µM	> 100	> 100 µM	> 100 µM										
S=C(Nc1ccc(Cl)cc1)Nc1ccc(-c2nc3ccccc3[nH]2)cc1	12.3 µM	14.9	11.7 µM		40.8 µM	> 68.7 µM	13.5 µM	> 58.8	36.1 µM	14.8 µM	1.53 µM	4.06 µM	5.05 µM		20.4 µM	12.2 µM	5.27 µM	22.4 µM	7.73 µM	5.15 µM
CC(=O)/C=C/c1ccc(C2CC(C)=Nc3c(ccc4c3C(=O)c3ccccc3C4=O)N2)cc1 (centres undefined)	> 100 µM	> 100	> 100 µM	> 100 µM	> 100 µM	> 100 µM	> 100 µM	> 100	> 100 µM	> 100 µM										
CN(c1ccccc1)C(c1ccccc1)C(O)c1ccccc1 (centres undefined)	47.8 µM	32.9	31.7 µM	42.1 µM	37.3 µM	42.1 µM	37.7 µM	33.2	57.1 µM	38.1 µM										
COc1ccc(/C=C2/C[N+](C)(C)C/C(=C/c3ccc(OC)cc3)C2=O)cc1	> 100 µM	> 100	> 100 µM	57.1 µM	> 100 µM	> 94.4 µM	> 100 µM	> 100	> 100 µM	47.5 µM										
CC(C)(O)C1OCC(C2CCC3(C)C4=CCC5C(C)(C)C(O)CCC5(C)C4CCC23C)CC1O (centres undefined)	27.6 µM	25.7	42.7 µM	41.9 µM	39.6 µM	30.4 µM	26.4 µM	28.5	25.9 µM	29.5 µM										
COC(=O)c1c(CC#N)cccc1CC#N	> 100 µM	> 100	> 100 µM	> 100 µM	> 100 µM	> 100 µM	> 100 µM	> 100		> 100 µM										
CCOC(=O)CC1=CSC2=NCCN12	> 100 µM	> 100	> 100 µM		> 100 µM	> 100 µM	> 100 µM	> 100	> 100 µM	> 100 µM										
N.N.NC(CS)C(=O)[O-].NC(CS)C(=O)[O-].[Pt+4] (centres undefined)	> 50 µM	> 50	> 50 µM	> 50 µM	> 50 µM	> 50 µM	> 50 µM	> 50	> 50 µM	> 50 µM	> 50 µM	> 50 µM	> 50 µM	> 50 µM	> 50 µM	> 50 µM	> 50 µM	> 50 µM	> 50 µM	> 50 µM
C=C1C(=O)OC2CC3(CO3)C3C(O)C(O)CC3(C)CC12 (centres undefined)	50.7 µM	> 100	23.5 µM	46.7 µM	71.7 µM	> 100 µM	39.2 µM	32.3	> 100 µM	38 µM										
CCN(CC)CCOc1ccc(/C=C2\CC3C4CC=C5C[C@@H](N6CCCC6)CC[C@]5(C)C4CC[C@]3(C)[C@H]2O)cc1OC (some centres undefined)	32.7 µM	> 100	5.28 µM	> 21.6 µM	> 72.8 µM	> 76.6 µM	3.93 µM	7.38	37.2 µM	34.6 µM	8.14 µM	2.39 µM	1.92 µM	2.2 µM	24 µM	11.8 µM	1.91 µM	0.624 µM	9.64 µM	16.6 µM
O=c1cc2ccccc2nn1-c1ccccc1Cl	> 100 µM	> 100	> 100 µM		> 100 µM	> 100 µM	> 100 µM	> 100	> 100 µM	> 100 µM										
O=C1C(=O)c2ccccc2C(O)=C1C(CCc1ccccc1)C1=C(O)c2ccccc2C(=O)C1=O	> 100 µM	> 100	> 100 µM		> 100 µM	> 100 µM	> 100 µM	> 100	> 100 µM	34.5 µM										
CS(=O)c1ccc(COP(N)(=O)N(CCCl)CCCl)cc1 (centres undefined)	> 100 µM	> 100	> 100 µM	> 100 µM	> 100 µM	> 100 µM	> 100 µM	> 100	> 100 µM	> 100 µM										
COc1ccc(-c2nc(-c3cn(C)c4ncccc34)cs2)cc1	55.9 µM	> 100	> 100 µM	> 100 µM	> 100 µM	> 100 µM	> 100 µM	> 100	> 100 µM	> 100 µM	2.02 µM	17.3 µM	54.1 µM	18.9 µM	> 100 µM	82.6 µM	92.7 µM	19.3 µM	> 100 µM	13 µM
